Usually Ki stands for the dissociation constant of the complex between target and ligand, obtained from inhibition or displacement. In general, EC50 refers to the midpoint of the concentration-response curve. High values mean lower potency in that assay, low ones higher potency in that assay.

Drawing on patent US10501421B1, “Substituted benzimidazoles as modulators of Ras signaling” (VANDERBILT UNIVERSITY, priority 2017, dated 2019), this text covers Ki and EC50 for 12 compounds.

Counter-ions that a name gives are not always drawn.

One assay deals with T1, Son of Sevenless (SOS) (Homo sapiens, UniProt Q07889).
T1 sequence (Q07889 564-1049 limits assumed): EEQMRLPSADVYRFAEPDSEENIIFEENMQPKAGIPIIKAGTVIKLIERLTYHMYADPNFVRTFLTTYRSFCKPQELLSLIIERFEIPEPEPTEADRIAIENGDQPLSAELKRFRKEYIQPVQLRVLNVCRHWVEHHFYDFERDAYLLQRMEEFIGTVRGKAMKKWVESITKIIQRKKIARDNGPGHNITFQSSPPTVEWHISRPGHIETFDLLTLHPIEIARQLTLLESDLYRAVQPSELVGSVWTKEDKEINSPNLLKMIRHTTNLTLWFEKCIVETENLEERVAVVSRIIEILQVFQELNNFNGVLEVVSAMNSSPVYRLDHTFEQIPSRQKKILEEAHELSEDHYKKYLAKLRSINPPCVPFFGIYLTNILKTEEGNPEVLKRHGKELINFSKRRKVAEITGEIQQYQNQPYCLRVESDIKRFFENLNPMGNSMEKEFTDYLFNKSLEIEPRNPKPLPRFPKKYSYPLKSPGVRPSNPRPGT
Kind of assay: Binding to SOS, fluorescence polarization anisotropy (FPA) probe displacement. The settings on record: displacement of FITC-conjugated probe (Example 285), affinity calculated from IC50. An outline of the steps: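 A FITC-conjugated probe compound was incubated with SOS in buffer, and its displacement was tracked as a change in fluorescence anisotropy across a test-compound dose range. IC50 came from a four-parameter variable-slope fit, and binding affinity was calculated from it.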

The target of assay [1] is Ras GEF SOS (Son of Sevenless) (Homo sapiens, UniProt Q07889). Put plainly: SOS-mediated nucleotide exchange on Ras (BODIPY-GDP fluorescence). To be noted: SOS-mediated exchange of BODIPY-GDP for GTP on Ras. The assay is classed as biochemical. A digest of the protocol: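 Ras loaded with BODIPY-GDP was mixed in buffer with test compound, then GTP and SOS. Fluorescence change from labeled GDP/GTP exchange was followed over time, and rates came from single-exponential fits. EC50 came from a four-parameter fit of mean rate against compound concentration.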
Sequence of Ras GEF SOS (Son of Sevenless) (P01112 1-166 partner limits assumed, one chain of several): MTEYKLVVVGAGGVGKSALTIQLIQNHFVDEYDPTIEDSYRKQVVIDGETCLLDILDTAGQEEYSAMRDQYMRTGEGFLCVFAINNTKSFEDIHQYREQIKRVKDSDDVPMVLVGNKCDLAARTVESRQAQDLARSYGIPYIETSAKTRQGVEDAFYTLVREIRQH

For the compound `CCCN1CC[C@@H](C(=O)c2ccccc2)C1c1cc(Cl)cc2c1nc(N1CCNCC1)n2Cc1cc(C)c(F)c(C)c1` (stereo in doubt) [Example 149, ((2S,3R)-2-(6-chloro-1-(4-fluoro-3,5-dimethylbenzyl)-2-(piperazin-1-yl)-1H-benzo[d]imidazol-4-yl)-1-propylpyrrolidin-3-yl)(phenyl)methanone trifluoroacetate], the Ki on Son of Sevenless (SOS) was 1 to 5 µM. The compound also yielded an EC50 in assay [1] of 5 to 30 µM.
The corresponding values for `Cc1cc(C2=CCNCC2)c2nc(N3CCNCC3)n(Cc3cc(C)c(F)c(C)c3)c2c1` [Example 103, 1-(4-fluoro-3,5-dimethylbenzyl)-6-methyl-2-(piperazin-1-yl)-4-(1,2,3,6-tetrahydropyridin-4-yl)-1H-benzo[d]imidazole] are below 0.5 µM and 1 to 5 µM.
`Cc1cnc2nc(NCCN)n(Cc3ccc(F)c(Cl)c3)c2c1` [Example 246, N^1-(1-(3-chloro-4-fluorobenzyl)-6-methyl-1H-imidazo[4,5-b]pyridin-2-yl)ethane-1,2-diamine]: at Son of Sevenless (SOS), the Ki is 1 to 5 µM. Moreover, in assay [1], the EC50 was 1 to 5 µM.
Turning to `Cc1cc2nc(N3CCC(N)CC3)n(Cc3ccc(F)c(Cl)c3)c2cc1C` [Example 294, 1-(1-(3-chloro-4-fluorobenzyl)-5,6-dimethyl-1-benzo[d]imidazol-2-yl)piperidin-4-amine], the Ki at Son of Sevenless (SOS) is above 5 µM. The compound also came in with an EC50 in assay [1] of 5 to 30 µM.
As for `Cc1cc2nc(N3CCNCC3)n(Cc3ccc(F)c(C(F)(F)F)c3)c2cc1C` [Example 40, 1-(4-fluoro-3-(trifluoromethyl)benzyl)-5,6-dimethyl-2-(piperazin-1-yl)-1H-benzo[d]imidazole trifluoracetate], the Ki on Son of Sevenless (SOS) was above 5 µM. Moreover, the 50% effective concentration (EC50) in assay [1] is 5 to 30 µM.
`Cc1cc2c(nc(N3CCNCC3)n2Cc2ccc(F)c(Cl)c2)c(-c2ccnn2-c2ccccc2)c1C` [Example 171, 1-(3-chloro-4-fluorobenzyl)-5,6-dimethyl-4-(1-phenyl-1H-pyrazol-5-yl)-2-(piperazin-1-yl)-1H-benzo[d]imidazole trifluoroacetate]: the Ki on Son of Sevenless (SOS) was 1 to 5 µM. The compound further yielded an EC50 in assay [1] of 1 to 5 µM.
As for `Cc1cc2nc(N3CC(CN)C3)n(Cc3ccc(F)c(Cl)c3)c2cc1C` [Example 288, (1-(1-(3-chloro-4-fluorobenzyl)-5,6-dimethyl-1H-benzo[d]imidazol-2-yl)azetidin-3-yl)methanamine], at Son of Sevenless (SOS), the Ki is 1 to 5 µM. Besides, the EC50 in assay [1] is below 1 µM.
For the compound `Cc1cc2nc(NCCN)n(CC3CCCCC3)c2cc1C` [Example 38, N^1-(1-(cyclohexylmethyl)-5,6-dimethyl-1H-benzo[d]imidazol-2-yl)ethane-1,2-diamine trifluoroacetate], the Ki at Son of Sevenless (SOS) is above 5 µM. The EC50 in assay [1] lay within 5 to 30 µM.
The corresponding values for `Cc1cc2nc(N3CCNCC3)n(Cc3cc(C)c(F)c(C)c3)c2cc1C` [Example 41, 1-(4-fluoro-3,5-dimethylbenzyl)-5,6-dimethyl-2-(piperazin-1-yl)-1H-benzo[d]imidazole trifluoroacetate] are above 5 µM and 1 to 5 µM.
The corresponding values for `Cc1cc(NCCN2CCOCC2)c2nc(N3CCNCC3)n(Cc3cc(C)c(F)c(C)c3)c2c1` [Example 193, 1-(4-fluoro-3,5-dimethylbenzyl)-6-methyl-N-(2-morpholinoethyl)-2-(piperazin-1-yl)-1H-benzo[d]imidazol-4-amine trifluoroacetate] are 0.5 to 1 µM and 1 to 5 µM.
The corresponding values for `Cc1cc2c(nc(N3CCNCC3)n2Cc2ccc(F)c(C)c2)c(Cl)n1` [Example 218, 4-chloro-1-(4-fluoro-3-methylbenzyl)-6-methyl-2-(piperazin-1-yl)-1H-imidazo[4,5-c]pyridine] are above 5 µM and 5 to 30 µM.
As for `Cc1cc2nc(NCCN)n(Cc3cccc(C(F)(F)F)c3)c2cc1C` [Example 33, N^1-(5,6-dimethyl-1-(3-(trifluoromethyl)benzyl)-1H-benzo[d]imidazol-2-yl)ethane-1,2-diamine trifluoroacetate], the Ki on Son of Sevenless (SOS) is above 5 µM. In assay [1], this compound came in with an EC50 of 1 to 5 µM.
